Experiments:
[1] = test system: A549 human lung carcinoma; assay: A549 CCK-8 proliferation assay; format: cell-based; conditions: A549 cells, 72 hr
Description: (§1) The following cancer cell lines were employed: A549 human lung carcinoma (ATCC, #CCL-185); BT-474 human breast carcinoma (ATCC, #HTB-20); MDA-MB-231 human breast adenocarcinoma (ATCC, #CRM−HTB-26); MDA-MB-468 human breast adenocarcinoma (ATCC, #HTB-132); MV-4-11 human acute myeloid leukemia (ATCC, #CRL-9591); and U-87 MG human glioblastoma (ATCC, #HTB-14). Cell lines were cultured essentially according to ATCC recommendations.
(§2) 3-fold serial dilutions of each test compound were prepared ranging from 20 μM to 1.02 nM.
(§3) % Inhibition=100−(D−B)/(S−B)*100%. • S: Absorbance of cells treated with DMSO • D: Absorbance of compound-treated cells • B: Absorbance of medium with DMSO without cells

[2] = test system: U-87 MG human glioblastoma; assay: U87 MG CCK-8 proliferation assay; format: cell-based; conditions: Homo sapiens, U-87 MG, 72 h, U-87 MG cells, read-out: U87MG CCK-8
Outline: (§4)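 Inhibition is derived from CCK-8 absorbance of compound-treated cells relative to DMSO-treated cells, after subtracting a cell-free medium/DMSO background. Test concentrations span 20 μM down to 1.02 nM in 3-fold steps, and lines are cultured as ATCC recommends.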

[3] = test system: MV-4-11 human acute myeloid leukemia; assay: MV-4-11 CCK-8 proliferation assay; format: cell-based; conditions: MV-4-11 cells, 72 hr
Outline: as §4

[4] = test system: MDA-MB-468 human breast adenocarcinoma; assay: MDA-MB-468 CCK-8 proliferation assay; format: cell-based; conditions: MDA-MB-468 cells, 72 hr
Description: as §1, §2, §3

HSP90α protein [5] = target: T1, HSP90α protein (Homo sapiens, UniProt P07900); assay: HSP90α-binding FP (FITC) assay; conditions: FP competition with FITC-geldanamycin
T1 construct: purchased BPS Bioscience #50298
Outline: (§5)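 Fluorescence polarization measured competition with N-terminal human HSP90α, using either FITC-geldanamycin or BODIPY-labelled triazolone RNK04010 as tracer (5 nM final each). Compounds were tested in 2.5-fold dilutions from 20 μM to 5.2 nM, with incubation at 25 °C for 120 min (FITC) or 300 min (BODIPY).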

HSP90α protein [6] = target: T1, HSP90α protein; assay: HSP90α-binding FP (BODIPY) assay; conditions: FP competition with BODIPY-labeled RNK04010
Outline: as §5

ERBB2 = ERBB2 (HER2) flow cytometry protein degradation assay in BT-474 cells; format: cell-based, human; conditions: DC50, BT-474 cells, 24 hr
Outline: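 BT-474 cells trypsinised after compound treatment and stained with PE-conjugated anti-ERBB2 antibody, 30 min at 25° C in the dark, then fixed in 1% paraformaldehyde for flow cytometry. % inhibition = 100−(D−B)/(S−B)*100, using treated, untreated-stained and unstained cell fluorescence.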

MAPK7 [7] = target: T2, MAPK7 (Homo sapiens, UniProt Q13164); assay: MAPK7 Western blot protein degradation assay in U-87 MG cells; format: cell-based; set-up: U-87 MG human glioblastoma cells, which express MAPK7; endogenous in cells; host or cells: U-87 MG; conditions: 48 hr
T2 sequence (Q13164 whole entry): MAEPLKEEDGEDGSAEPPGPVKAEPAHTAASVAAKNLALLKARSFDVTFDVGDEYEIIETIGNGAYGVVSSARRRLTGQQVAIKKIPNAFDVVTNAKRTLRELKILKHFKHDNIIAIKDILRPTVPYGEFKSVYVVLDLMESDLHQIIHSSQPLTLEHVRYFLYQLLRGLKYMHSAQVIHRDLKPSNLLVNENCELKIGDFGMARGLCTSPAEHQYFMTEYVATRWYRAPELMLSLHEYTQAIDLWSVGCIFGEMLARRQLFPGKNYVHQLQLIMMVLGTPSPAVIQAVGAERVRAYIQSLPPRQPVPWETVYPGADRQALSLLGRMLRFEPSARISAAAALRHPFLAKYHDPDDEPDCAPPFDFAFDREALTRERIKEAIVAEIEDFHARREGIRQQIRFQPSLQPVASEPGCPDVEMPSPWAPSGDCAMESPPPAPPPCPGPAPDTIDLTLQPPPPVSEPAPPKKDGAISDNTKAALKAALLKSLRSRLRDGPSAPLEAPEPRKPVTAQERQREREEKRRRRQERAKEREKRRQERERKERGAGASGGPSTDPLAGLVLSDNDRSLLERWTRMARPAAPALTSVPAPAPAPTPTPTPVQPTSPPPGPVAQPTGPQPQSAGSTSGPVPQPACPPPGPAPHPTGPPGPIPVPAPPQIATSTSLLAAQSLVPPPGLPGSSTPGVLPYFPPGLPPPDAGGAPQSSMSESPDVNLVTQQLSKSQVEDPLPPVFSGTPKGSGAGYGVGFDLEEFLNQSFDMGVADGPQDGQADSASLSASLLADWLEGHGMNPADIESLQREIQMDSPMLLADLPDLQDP
Outline: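 U-87 MG glioblastoma cells treated with compounds at various concentrations for 48 h at 37 °C. MAPK7 (ERK5) levels in protein-normalized lysates measured by Western blot with β-actin as loading reference, quantified by fluorescence imaging.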

[8] = test system: MDA-MB-231 human breast adenocarcinoma; assay: MDA-MB-231 CCK-8 proliferation assay; format: cell-based; conditions: MDA-MB-231 cells, 72 hr
Description: as §1, §2, §3

MAPK7 [9] = target: T2, MAPK7; assay: MAPK7 kinase assay (ADP-Glo); format: biochemical; set-up: purchased Carna Biosciences #04-146; conditions: ATP 340 μM
Outline: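 Recombinant human MAPK7 (20 nM) with 0.1 mg/ml myelin basic protein and 340 μM ATP; compounds in 3-fold dilutions from 50 μM to 2.54 nM. ADP formation read by ADP-Glo luminescence, scaled between 0.5% DMSO and 10 μM XMD17-109 controls.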

| EC50 [1] [nM] | EC50 [2] [nM] | EC50 ([3]; Homo sapiens, MV4-11) [nM] | EC50 [4] [nM] | IC50 (HSP90α protein [5]) [nM] | IC50 (HSP90α protein [6]) [nM] | MAPK7 degradation (30 nM) (MAPK7 [7]) | MAPK7 degradation (100 nM) (MAPK7 [7]) | MAPK7 degradation (1000 nM) (MAPK7 [7]) | EC50 [8] [nM] | IC50 (MAPK7 [9]) [nM] | MAPK7 degradation (300 nM) (MAPK7 [7]; 300 nM) | EC50 [3] [nM] | Compound | ERBB2 degradation (ERBB2) |
| --- | --- | --- | --- | --- | --- | --- | --- | --- | --- | --- | --- | --- | --- | --- |
| 100 to 1000 | < 100 | < 100 | < 100 | 100 to 1000 | 100 to 1000 | C (< 33% degradation) | C (< 33% degradation) | A (>66% degradation) | < 100 | – | – | – | CCOc1cc(N2CCC(C(=O)N3CCC(N4CCN(Cc5ccc(-n6c(O)nnc6-c6cc(C(C)C)c(O)cc6O)cc5)CC4)CC3)CC2)ccc1Nc1ncc2c(n1)N(C)c1ccccc1C(=O)N2C [Compound 004, 2-((4-(4-(4-(4-(4-(3-(2,4-dihydroxy-5-isopropylphenyl)-5-hydroxy-4H-1,2,4-triazol-4-yl)benzyl)piperazin-1-yl)piperidine-1-carbonyl)piperidin-1-yl)-2-ethoxyphenyl)amino)-5,11-dimethyl-5H-benzo[e]pyrimido[5,4-b][1,4]diazepin-6(11H)-one] | B (DC50 = 100-1000 nM) |
| > 1000 | > 1000 | > 1000 | > 1000 | – | > 1000 | – | – | – | > 1000 | > 1000 | – | – | CCOc1cc(N2CCC(C(=O)N3CCC(CN4CCN(Cc5ccc(-n6c(O)nnc6-c6cc(C(C)C)c(O)cc6OC)cc5)CC4)CC3)CC2)ccc1Nc1ncc2c(n1)N(C)c1ccccc1C(=O)N2C [Compound 052, 2-((2-ethoxy-4-(4-(4-((4-(4-(3-hydroxy-5-(4-hydroxy-5-isopropyl-2-methoxyphenyl)-4H-1,2,4-triazol-4-yl)benzyl)piperazin-1-yl)methyl)piperidine-1-carbonyl)piperidin-1-yl)phenyl)amino)-5,11-dimethyl-5,11-dihydro-6H-benzo[e]pyrimido[5,4-b][1,4]diazepin-6-one] | C (DC50 > 1000 nM) |
| 100 to 1000 | 100 to 1000 | < 100 | < 100 | – | 100 to 1000 | C (< 33% degradation) | B (33-66% degradation) | A (>66% degradation) | < 100 | – | A (>66% degradation) | – | CCOc1cc(N2CCC(C(=O)N3CCC(N4CCN(c5ccc(-n6c(O)nnc6-c6cc(C(C)C)c(O)cc6O)cc5)CC4)CC3)CC2)ccc1Nc1ncc2c(n1)N(C)c1ccccc1C(=O)N2C [Compound 040, 2-((4-(4-(4-(4-(4-(3-(2,4-dihydroxy-5-isopropylphenyl)-5-hydroxy-4H-1,2,4-triazol-4-yl)phenyl)piperazin-1-yl)piperidine-1-carbonyl)piperidin-1-yl)-2-ethoxyphenyl)amino)-5,11-dimethyl-5,11-dihydro-6H-benzo[e]pyrimido[5,4-b][1,4]diazepin-6-one] | – |
| 100 to 1000 | 100 to 1000 | – | – | – | 100 to 1000 | – | – | – | – | 100 to 1000 | – | < 100 | CCOc1cc(N2CCC(C(=O)N3CCC(CN4CCN(Cc5ccc(-n6c(C(=O)NC(C)C(F)(F)F)nnc6-c6cc(CC)c(O)cc6O)cc5)CC4)CC3)CC2)ccc1Nc1ncc2c(n1)N(S(C)(=O)=O)c1ccccc1C(=O)N2C.Cl (centres unmarked) [Compound 078, 4-(4-((4-((1-(1-(3-ethoxy-4-((5-methyl-11-(methylsulfonyl)-6-oxo-6,11-dihydro-5H-benzo[e]pyrimido[5,4-b][1,4]diazepin-2-yl)amino)phenyl)piperidine-4-carbonyl)piperidin-4-yl)methyl)piperazin-1-yl)methyl)phenyl)-5-(5-ethyl-2,4-dihydroxyphenyl)-N-(1,1,1-trifluoropropan-2-yl)-4H-1,2,4-triazole-3-carboxamide] | B (DC50 = 100-1000 nM) |

From patent US20240124460A1, “METHODS AND COMPOSITIONS FOR TARGETED PROTEIN DEGRADATION” (Ranok Therapeutics (Hangzhou) Co. Ltd., priority 2020, published 2024)
